Assay results reported in patent US20250288514A1, “SKIN-SOOTHING COMPOSITION” (Amorepacific Corporation, priority 2024, published 2025).

What was measured:
filaggrin protein = test: Moisturizing factor evaluation: filaggrin protein expression in artificial skin treated with inflammation cocktail; type: cell-based; settings: inflammation cocktail IFN-γ (20 ng/ml)+TNF-α (20 ng/ml), compositions at 50 ppm, FIG. 3
claudin-1 protein = test: Skin cohesion evaluation: claudin-1 protein expression in artificial skin treated with inflammation cocktail; type: cell-based; settings: inflammation cocktail IFN-γ (20 ng/ml)+TNF-α (20 ng/ml), compositions at 50 ppm, FIG. 2
PGE2 (Prostaglandin E2) = test: Skin redness evaluation: amount of PGE2 in artificial skin treated with inflammatory factor; type: cell-based; settings: TNF-α+IFN-γ (20 ng/ml), FIG. 4
Source text: PGE2 is a factor that induces vasodilation and causes skin redness, wherein the smaller amount of PGE2, the less vasodilation induction, thereby suppressing the skin redness, and the skin redness evaluation results are shown in FIG. 4.

mast cell degranulation = settings: stated as known; cited from earlier work
[1] = Dilution of stock in medium (state of the composition); type: physicochemical; settings: 50 ppm in medium, from stock in purified water or DMSO
Source text: Because PEA was suspended at the 50 ppm, this composition was not used for an experiment.

[2] = Cell toxicity of the composition; settings: 50 ppm
Experimental: A composition was prepared by adding 1 g of (−)-epigallocatechin gallate 5 (EGCG) to 100 g of purified water or dimethyl sulfoxide (DMSO) to prepare a stock and diluting the stock to 50 ppm.

| Molecule | expression level of filaggrin protein (filaggrin protein) | expression level of claudin-1 protein (claudin-1 protein) | further results |
| --- | --- | --- | --- |
| CCCCCCCCCCCCCCCC(=O)NCCO [Comparative Example 4, palmitoylethanolamide] | not recovered from the decrease of the protein expression | not recovered from the decrease in the protein expression of the claudin-1 protein | – |
| Oc1cc(O)c2c(c1)O[C@H](c1ccc(O)c(O)c1)[C@H](O)C2 [Example 3, epicatechin] | recovered from the decrease of the protein expression | recovered from the decrease in the protein expression of the claudin-1 protein | amount of PGE2 (PGE2 (Prostaglandin E2)): the amount of PGE2 was suppressed |
| CCCCCCCCCCCCCCCC(=O)NCCO [PEA, palmitoylethanolamide] | – | – | effect of suppressing the mast cell degranulation (mast cell degranulation): no effect of suppressing the mast cell degranulation; state on dilution in medium [1]: suspended |
| (−)-epigallocatechin gallate [Comparative Example 7] | not recovered from the decrease of the protein expression | not recovered from the decrease in the protein expression of the claudin-1 protein | – |
| (−)-epigallocatechin gallate [EGCG] | – | – | cell toxicity [2]: cell toxicity |
